From ChEMBL document CHEMBL3507680, “University of Dundee, Gates Library screen for HepG2 cell viability”

Assay: Human HepG2 cell viability assay in 384 well format
Type: toxicity, cell-based
Parameters: dose 125 nL, time 70.5 hour; cytotoxicity at 70.5 h: concentration not given beside the values
Conditions: HepG2 cells, read-out: Inhibition

SMILES	cytotoxicity at 70.5 h
CC(C)(CNC1CCCN(Cc2ccccn2)C1)CN1CCOCC1 (stereo not given)	-12.6%
CN(C)C1CCN(Cc2cnc(S(C)(=O)=O)n2CC2CCCCC2)C1 (stereo not given)	-7.41%
CC(C)NC(=O)NCCn1nc(C(F)(F)F)n(C)c1=O	-4.05%
CC(C)CNC(=O)[C@H]1C[C@@H]2CN(C(=O)NCCc3ccccc3)C[C@H]1O2	-10.9%
O=C(NCCO)Nc1ccc(Cl)cc1-n1cccc1	0.77%
COc1ccc(Oc2ncccc2NC(=O)N2CCOCC2)cc1	-6.42%
CC[C@@H](Cn1ncc2ccccc2c1=O)NC(=O)c1cnccn1	-4.08%
CCN(Cc1cccc2c1OCO2)C(=O)Nc1cn[nH]c1	-5.23%
CN(Cc1ccncn1)C(=O)C1(Oc2ccc(Cl)cc2)CCNCC1	-4.8%
O=C(CCCn1nnc(-c2ccc(F)cc2)n1)N1CCOCC(CO)C1 (stereo not given)	23.7%
COc1ccc(C)cc1CN(Cc1nc(C)c(C)o1)C1CCN(C)C1 (stereo not given)	3.17%
CC1(C(N)=O)CCCN(c2cnccn2)C1 (stereo not given)	5.53%
O=C1CCC2(CCN(CC[C@H](O)c3ccccc3)CC2)CN1CCO	1.6%
CCOCC(O)CN1CCN(C(=O)c2ccccc2F)CC1 (stereo not given)	-1.86%
Cc1c(C(=O)NCC(F)(F)F)nnn1-c1ccccc1Cl	-3.49%
Cn1ccc(CN2CCC(OCCc3ccccc3)CC2)cc1=O	-5.72%
O=C(c1ccsc1)N1C[C@H]2CN(Cc3cccc(F)c3)C(=O)[C@H]2C1	-1.45%
Cn1ncc2c(N[C@H]3CCCC[C@@H]3O)nc(C(C)(C)C)nc21	-2.77%
COCCC(=O)N(CCC#N)c1ccc(C)c(C)c1	-3.89%
CC(C)CN(Cc1nc2c(cnn2C)c(=O)[nH]1)C(C)C	-2.34%
CNc1nc(CNC(=O)Nc2cccc(F)c2)cs1	-6.65%
CO[C@@H]1CC[C@H]2[C@H]1OCCN2CCOCc1ccccc1	-12.3%
CCOCC1CN(C(=O)c2cnoc2C)Cc2cn(C)nc21 (stereo not given)	-5.33%

SMILES	cytotoxicity at 70.5 h
Cn1cc(C[C@H]2[C@H](N3CCOCC3)CCN2C(=O)c2ccc[nH]2)cn1	-20.8%
N#Cc1ccc(SCCCO)c(F)c1	-5.69%
Cc1csc([C@@H]2C[C@@H]3CCN(C(=O)c4cccn4C)C[C@H]3O2)n1	9.1%
CC1COCCN1C(=O)Nc1cnc2c(cnn2C(C)C)c1 (stereo not given)	-2.52%
O=C(NCC1CCN(CCc2ccccc2)C1)c1cc(Cl)c[nH]1 (stereo not given)	2.19%
Cc1nc(N(C)C)nc2c1COCC21CCN(C(=O)C2CC2)C1 (stereo not given)	-3.72%
CC(C)c1cc(C(=O)NCCN2CCCS2(=O)=O)n[nH]1	-19.6%
Cc1nc(CN2CCC3(CC2)NC(=O)CC3c2ccncc2)cs1 (stereo not given)	-5.12%
CCNc1ccnc(N2CCCC(CCOC)(C(=O)O)C2)n1 (stereo not given)	23.1%
NC(=O)c1ccnc(N2CCN(Cc3ccc(F)cc3Cl)CC2)c1	-15.2%
CCn1cncc1Cn1cccc(C(F)(F)F)c1=O	2.51%
Cn1cc(C2CCCN2C(=O)CCn2c(=O)oc3ccccc32)cn1 (stereo not given)	-2.42%
CC(NC(=O)CNCCn1cccn1)c1ccc2c(c1)OCCO2 (stereo not given)	-7.87%
O=C(NCc1cccnc1-n1cncn1)c1cc(Cl)ccn1	12.4%
Cn1cnnc1C1CCN(C(=O)c2cc3c(s2)CCC3)CC1	-9.61%
O=C(Cc1ccc2c(c1)OCCO2)N1CCCC(n2ccnc2)C1 (stereo not given)	18.8%
O=C(c1cc(F)ccc1O)N1CCN(C(=O)C2CCC2)CC1	-3.26%
CCOc1ccc(N(C)Cc2nc(C)c(C)o2)cc1	15.3%
CCn1cc2c(n1)CN(S(=O)(=O)Cc1ccccc1)CC2COC (stereo not given)	11.6%
COCc1nnc(NC(=O)c2cn(C(C)C)c3ccc(OC)cc23)s1	-10.1%
Cc1nnc([C@H]2CC[C@@H]3[C@@H](CCN3Cc3c(C)noc3C)O2)o1	-5.84%
CCNC(=O)NC(=O)CSC(C)c1ccccc1F (stereo not given)	-9.82%
